Results from the supplement of paper PMC4976141.
± gives the uncertainty stated by the source.

How the values were obtained:
SK-BR-3 [1] = test: % viability under drug (72 h drug + 72 h recovery), miRNA mimic relative to NTC in DMSO; higher = more surviving cells; details: drug used in drug arm: lapatinib 1 uM; treatment: drug
Description: (§1)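 26 miRNA mimics were transfected into 8 cancer cell lines in triplicate. 48 h post-transfection, cells were treated 72 h with DMSO or a line-specific drug, then recovered 72 h drug-free. Drugs: COLO-205 AZ628 1 uM, MKN-45 crizotinib 1 uM, NCI-H596 paclitaxel 6 uM, EVSA-T GDC-0980 2.5 uM, M14 AZ628 1 uM, HCC-1954 GDC-0980 2.5 uM, NCI-H441 carboplatin 2.5 uM, SKBr3 lapatinib 1 uM. Surviving cells are expressed as % of NTC-transfected cells in DMSO (the NTC drug arm itself is about 30-50%), mean +- SEM.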

NCI-H441 [2] = test: as above; details: drug used in drug arm: carboplatin 2.5 uM; treatment: drug
Description: as §1

MKN-45 [3] = test: as above; details: drug used in drug arm: crizotinib 1 uM; treatment: drug
Description: as §1

M14 [4] = test: as above; details: drug used in drug arm: AZ628 1 uM; treatment: drug
Description: as §1

COLO-205 [5] = test: as above; details: drug used in drug arm: AZ628 1 uM; treatment: drug
Description: as §1

NCI-H596 [6] = test: as above; details: drug used in drug arm: paclitaxel 6 uM; treatment: drug
Description: as §1

EVSA-T [7] = test: as above; details: drug used in drug arm: GDC-0980 2.5 uM; treatment: drug
Description: as §1

HCC-1954 [8] = test: as above; details: drug used in drug arm: GDC-0980 2.5 uM; treatment: drug
Description: as §1

SK-BR-3 [9] = test: % viability in DMSO, miRNA mimic relative to NTC in DMSO; higher = less cytotoxic; details: drug used in drug arm: lapatinib 1 uM; treatment: DMSO
Description: as §1

NCI-H441 [10] = test: as above; details: drug used in drug arm: carboplatin 2.5 uM; treatment: DMSO
Description: as §1

MKN-45 [11] = test: as above; details: drug used in drug arm: crizotinib 1 uM; treatment: DMSO
Description: as §1

M14 [12] = test: as above; details: drug used in drug arm: AZ628 1 uM; treatment: DMSO
Description: as §1

COLO-205 [13] = test: as above; details: drug used in drug arm: AZ628 1 uM; treatment: DMSO
Description: as §1

NCI-H596 [14] = test: as above; details: drug used in drug arm: paclitaxel 6 uM; treatment: DMSO
Description: as §1

EVSA-T [15] = test: as above; details: drug used in drug arm: GDC-0980 2.5 uM; treatment: DMSO
Description: as §1

HCC-1954 [16] = test: as above; details: drug used in drug arm: GDC-0980 2.5 uM; treatment: DMSO
Description: as §1

PC9 = test: cell count fold change with erlotinib, miRNA mimic vs non-targeting control (log2 ratio); higher = more drug-tolerant survivors than NTC; details: erlotinib 1 µM; 72 h drug + 72 h drug-free recovery; perturbation: miRNA mimic

Sequence	cell count fold change with erlotinib (PC9)	other results
ACAGUAGAGGGAGGAAUCGCAG	-3.56	% viability under drug (SK-BR-3 [1]): 25.7 ± 0.71%; % viability under drug (NCI-H441 [2]): 38.6 ± 6.2%; % viability under drug (MKN-45 [3]): 0.428 ± 0.005%; % viability under drug (M14 [4]): 4.04 ± 0.76%; % viability under drug (COLO-205 [5]): 37.6 ± 4.1%; % viability under drug (NCI-H596 [6]): 0.53 ± 0.13%; % viability under drug (EVSA-T [7]): 0.124 ± 0.035%; % viability under drug (HCC-1954 [8]): 1.37 ± 0.43%; % viability in DMSO (SK-BR-3 [9]): 67.8 ± 13%; % viability in DMSO (NCI-H441 [10]): 34.6 ± 18%; % viability in DMSO (MKN-45 [11]): 31.6 ± 9.1%; % viability in DMSO (M14 [12]): 20 ± 3.4%; % viability in DMSO (COLO-205 [13]): 94 ± 5.5%; % viability in DMSO (NCI-H596 [14]): 65.6 ± 2.4%; % viability in DMSO (EVSA-T [15]): 25.6 ± 1.8%; % viability in DMSO (HCC-1954 [16]): 64.5 ± 2.5%
UGUCAGUUUGUCAAAUACCCCA	-5.21	% viability under drug (SK-BR-3 [1]): 27.4 ± 1.9%; % viability under drug (NCI-H441 [2]): 5.55 ± 0.62%; % viability under drug (MKN-45 [3]): 2.37 ± 0.29%; % viability under drug (M14 [4]): 16.4 ± 2.8%; % viability under drug (COLO-205 [5]): 38 ± 0.5%; % viability under drug (NCI-H596 [6]): 0.42 ± 0.093%; % viability under drug (EVSA-T [7]): 0.172 ± 0.0035%; % viability under drug (HCC-1954 [8]): 0.617 ± 0.0095%; % viability in DMSO (SK-BR-3 [9]): 104 ± 12%; % viability in DMSO (NCI-H441 [10]): 27.3 ± 6.4%; % viability in DMSO (MKN-45 [11]): 142 ± 23%; % viability in DMSO (M14 [12]): 129 ± 10%; % viability in DMSO (COLO-205 [13]): 98.3 ± 4.3%; % viability in DMSO (NCI-H596 [14]): 22.8 ± 1.2%; % viability in DMSO (EVSA-T [15]): 28 ± 2.1%; % viability in DMSO (HCC-1954 [16]): 31.9 ± 3.4%
AAAAGUAAUUGCGGAUUUUGCC	0.467	% viability under drug (SK-BR-3 [1]): 45.73 ± 0.37%; % viability under drug (NCI-H441 [2]): 29.7 ± 2.4%; % viability under drug (MKN-45 [3]): 4.35 ± 0.71%; % viability under drug (M14 [4]): 18 ± 0.42%; % viability under drug (COLO-205 [5]): 42.6 ± 1%; % viability under drug (NCI-H596 [6]): 1.3 ± 0.04%; % viability under drug (EVSA-T [7]): 0.608 ± 0.1%; % viability under drug (HCC-1954 [8]): 3.99 ± 0.13%; % viability in DMSO (SK-BR-3 [9]): 73.43 ± 0.24%; % viability in DMSO (NCI-H441 [10]): 182 ± 14%; % viability in DMSO (MKN-45 [11]): 136 ± 19%; % viability in DMSO (M14 [12]): 119 ± 24%; % viability in DMSO (COLO-205 [13]): 101 ± 4.2%; % viability in DMSO (NCI-H596 [14]): 95.4 ± 3.6%; % viability in DMSO (EVSA-T [15]): 85.7 ± 0.94%; % viability in DMSO (HCC-1954 [16]): 117 ± 9.9%
CAAAAGUAAUUGUGGAUUUUGU	-2.88	% viability under drug (SK-BR-3 [1]): 20.2 ± 1.6%; % viability under drug (NCI-H441 [2]): 13.6 ± 2%; % viability under drug (MKN-45 [3]): 1.49 ± 0.11%; % viability under drug (M14 [4]): 14.1 ± 0.89%; % viability under drug (COLO-205 [5]): 44.6 ± 3.2%; % viability under drug (NCI-H596 [6]): 0.808 ± 0.028%; % viability under drug (EVSA-T [7]): 0.243 ± 0.018%; % viability under drug (HCC-1954 [8]): 1.55 ± 0.17%; % viability in DMSO (SK-BR-3 [9]): 46.3 ± 3.1%; % viability in DMSO (NCI-H441 [10]): 62.3 ± 2.6%; % viability in DMSO (MKN-45 [11]): 40.7 ± 3.5%; % viability in DMSO (M14 [12]): 62.9 ± 9%; % viability in DMSO (COLO-205 [13]): 106 ± 1.7%; % viability in DMSO (NCI-H596 [14]): 73.6 ± 2.9%; % viability in DMSO (EVSA-T [15]): 39.3 ± 3.4%; % viability in DMSO (HCC-1954 [16]): 88.3 ± 15%
CACACACUGCAAUUACUUUUGC	-3.13	
GUGAGGACUCGGGAGGUGG	-3.05	
GUGUGCGGAAAUGCUUCUGCUA	-2.43	
UCCAGCAUCAGUGAUUUUGUUG	-2.81	
UAAGUGCUUCCAUGUUUGAGUGU	-0.491	
AGAGCUUAGCUGAUUGGUGAAC	-3.36	
AUGGUUCCGUCAAGCACCAUGG	-2.16	
GGUUUGGUCCUAGCCUUUCUA	0.113	
AAAGACAUAGGAUAGAGUCACCUC	-0.142	
ACGGGUUAGGCUCUUGGGAGCU	-2.04	
CUACAAAGGGAAGCACUUUCUC	-2.75	
AAAGUGCUUCCUUUUAGAGGGU	0.14	
UGGUUGUAGUCCGUGCGAGAAUA	1.81	
UAGGACACAUGGUCUACUUCU	-1.02	
UAGAGUUACACCCUGGGAGUUA	-3.48	
GUGGGUACGGCCCAGUGGGGGG	0.186	
UGAGAACCACGUCUGCUCUGAG	-1.74	
AUGCUGACAUAUUUACUAGAGG	-1.82	
AGGGUGUUUCUCUCAUCUCU	-1.29	

Sequence	cell count fold change with erlotinib (PC9)	other results
ACCCUAUCAAUAUUGUCUCUGC	-3.19	
AGGCAGUGUAGUUAGCUGAUUGC	1.35	
CGGGGCAGCUCAGUACAGGAU	0.97	
CAAAGAGGAAGGUCCCAUUAC	-0.517	
AACAUUCAACGCUGUCGGUGAGU	-3.99	
AGGUUGGGAUCGGUUGCAAUGCU	-0.41	
UUGCAGCUGCCUGGGAGUGACUUC	-2.6	
GGGGAGCUGUGGAAGCAGUA	-2.06	
UCACUCCUCUCCUCCCGUCUU	-4.11	
AGUCAUUGGAGGGUUUGAGCAG	-3.38	
AGAUCAGAAGGUGAUUGUGGCU	-0.11	
UAUGGCUUUUUAUUCCUAUGUGA	-1.4	
UUGUGUCAAUAUGCGAUGAUGU	-3.39	
UAGCAGCACGUAAAUAUUGGCG	-2.26	
UAGAUAAAAUAUUGGUACCUG	-1.41	
CAAAGCGCUCCCCUUUAGAGGU	-0.185	
CUCUCACCACUGCCCUCCCACAG	-1.11	
UAGCAGCGGGAACAGUUCUGCAG	-3.68	
AAGAUGUGGAAAAAUUGGAAUC	-0.304	
UUCAACGGGUAUUUAUUGAGCA	-3.32	
CGGGUCGGAGUUAGCUCAAGCGG	-0.802	
UUGGGAUCAUUUUGCAUCCAUA	0.519	
GAAAGUGCUUCCUUUUAGAGGC	-0.077	

Sequence	cell count fold change with erlotinib (PC9)	other results
UCGGAUCCGUCUGAGCUUGGCU	0.402	
GUGAGUCUCUAAGAAAAGAGGA	-1.43	
UAUGUGCCUUUGGACUACAUCG	-3.93	
UGUUUUGAUAACAGUAAUGU	-1.27	
GAUGAGCUCAUUGUAAUAUGAG	-2.97	
AAGCAUUCUUUCAUUGGUUGG	-1.49	
AAAGUGCAUCCUUUUAGAGGUU	-0.881	
UUCUCGAGGAAAGAAGCACUUUC	-1.6	
UUCUCCAAAAGAAAGCACUUUCUG	-1.65	
GUGGCUGCACUCACUUCCUUC	-0.272	
UAAGGUGCAUCUAGUGCAGAUAG	-4.51	
AGGGGUGCUAUCUGUGAUUGA	0.941	
UCCCUGUCCUCCAGGAGCUCACG	-1.84	
CAGUGCAAUGAUAUUGUCAAAGC	-2.68	
CUGGUUUCACAUGGUGGCUUAG	-2.28	
UUUGUUCGUUCGGCUCGCGUGA	-4.05	
UUUCCAUAGGUGAUGAGUCAC	-0.48	
AUGUAUGUGUGCAUGUGCAUG	0.321	
CUCAGUAGCCAGUGUAGAUCCU	-4.13	
GAAGUGCUUCGAUUUUGGGGUGU	-0.122	
UCCUGUACUGAGCUGCCCCGAG	-0.848	
UCCCUGUUCGGGCGCCA	-3.09	
UGGAAUGUAAGGAAGUGUGUGG	-0.89	
